Experimental data: ChEMBL document CHEMBL5537205, “Discovery of D25, a Potent and Selective MNK Inhibitor for Sepsis-Associated Acute Spleen Injury” (J Med Chem, 2024)
Calls of active or inactive are those of the source. The rule behind the calls is not given here.

What was measured:
RAW264.7 [1] = assay: Antiinflammatory activity against mouse RAW264.7 cells assessed as inhibition of LPS-NO production at 20 uM by Griess reagent based assay relative to control; type: functional
MV4-11 = assay: Antiproliferative activity against human MV4-11 cells assessed as inhibition of cell proliferation at 20 uM incubated for 48 hrs by CCK8 assay relative to control; type: functional
RAW264.7 [2] = assay: Cytotoxicity against mouse RAW264.7 cells assessed as reduction in cell viability incubated for 24 hrs by MTT assay; type: toxicity, cell-based; conditions: raw264.7, 24 h
RAW264.7 [3] = assay: Antiinflammatory activity against mouse RAW264.7 cells assessed as inhibition of LPS-NO production by Griess reagent based assay; type: functional, cell-based
Mus musculus [4] = assay: Antiinflammatory activity in LPS-induced BALB/c sepsis mouse model assessed as decrease in serum IL-1beta level at 2.5 mg/kg preadministered with compound via gavage for 14 days followed by LPS stimulation and measured after 6 hrs by ELISA; type: functional, organism-based; conditions: time 342.0 hrs
Mus musculus [5] = assay: Antiinflammatory activity in LPS-induced BALB/c sepsis mouse model assessed as decrease in serum TNF-alpha level at 2.5 mg/kg preadministered with compound via gavage for 14 days followed by LPS stimulation and measured after 6 hrs by ELISA; type: functional, organism-based; conditions: time 342.0 hrs
Mus musculus [6] = assay: Antiinflammatory activity in LPS-induced BALB/c sepsis mouse model assessed as decrease in serum creatinine level at 2.5 mg/kg preadministered with compound via gavage for 14 days followed by LPS stimulation and measured after 6 hrs; type: functional, organism-based; conditions: time 342.0 hrs
Mus musculus [7] = assay: Antiinflammatory activity in LPS-induced BALB/c sepsis mouse model assessed as decrease in MDA level in serum at 2.5 mg/kg preadministered with compound via gavage for 14 days followed by LPS stimulation and measured after 6 hrs; type: functional, organism-based; conditions: time 342.0 hrs
Mus musculus [8] = assay: Antiinflammatory activity in LPS-induced BALB/c sepsis mouse model assessed as decrease in serum ALT level at 2.5 mg/kg preadministered with compound via gavage for 14 days followed by LPS stimulation and measured after 6 hrs; type: functional, organism-based; conditions: time 342.0 hrs
RAW264.7 [9] = assay: Antiinflammatory activity in LPS-induced mouse RAW264.7 cells assessed as reduction in ROS level at 10 uM pretreated with compound followed by LPS stimulation and measured after 1 hrs by flow cytometric analysis; type: functional, cell-based
Mus musculus [10] = assay: Antiinflammatory activity in LPS-induced BALB/c sepsis mouse model assessed as decrease in cell gap in spleen at 2.5 mg/kg preadministered with compound via gavage for 14 days followed by LPS stimulation and measured after 6 hrs by H&E staining based analysis; type: functional, organism-based; conditions: time 342.0 hrs
Mus musculus [11] = assay: Antiinflammatory activity in LPS-induced BALB/c sepsis mouse model assessed as increase in SOD level in serum at 2.5 mg/kg preadministered with compound via gavage for 14 days followed by LPS stimulation and measured after 6 hrs; type: functional, organism-based; conditions: time 342.0 hrs
Mus musculus [12] = assay: Antiinflammatory activity in LPS-induced BALB/c sepsis mouse model assessed as increase in GSH level in serum at 2.5 mg/kg preadministered with compound via gavage for 14 days followed by LPS stimulation and measured after 6 hrs; type: functional, organism-based; conditions: time 342.0 hrs
Mus musculus [13] = assay: Antiinflammatory activity in LPS-induced BALB/c sepsis mouse model assessed as decrease in serum IL-6 level at 2.5 mg/kg preadministered with compound via gavage for 14 days followed by LPS stimulation and measured after 6 hrs by ELISA; type: functional, organism-based; conditions: time 342.0 hrs
Mus musculus [14] = assay: Antiinflammatory activity in LPS-induced BALB/c sepsis mouse model assessed as decrease in serum BUN level at 2.5 mg/kg preadministered with compound via gavage for 14 days followed by LPS stimulation and measured after 6 hrs; type: functional, organism-based; conditions: time 342.0 hrs
Mus musculus [15] = assay: Antiinflammatory activity in LPS-induced BALB/c sepsis mouse model assessed as decrease in serum AST level at 2.5 mg/kg preadministered with compound via gavage for 14 days followed by LPS stimulation and measured after 6 hrs; type: functional, organism-based; conditions: time 342.0 hrs
Mus musculus [16] = assay: Antiinflammatory activity in LPS-induced BALB/c sepsis mouse model assessed as decrease in inflammatory cells in spleen at 2.5 mg/kg preadministered with compound via gavage for 14 days followed by LPS stimulation and measured after 6 hrs by H&E staining based analysis; type: functional, organism-based; conditions: time 342.0 hrs
Mus musculus [17] = assay: Antiinflammatory activity in LPS-induced BALB/c sepsis mouse model assessed as decrease in infiltration of macrophages in spleen at 2.5 mg/kg preadministered with compound via gavage for 14 days followed by LPS stimulation and measured after 6 hrs by immunohistochemistry analysis; type: functional, organism-based; conditions: time 342.0 hrs

Row | SMILES | inhibition at 20 µM (MV4-11) | other results
1 | N#Cc1ccc(-c2cc(C3CCNCC3)n[nH]2)cc1 | 6% | inhibition at 20 µM (RAW264.7 [1]): > 50%
2 | Clc1cncc(Cl)c1-c1cc(C2CCNCC2)n[nH]1 | 19.6% | 
3 | Clc1cc(-c2cc(C3CCNCC3)n[nH]2)ccn1 | 35.6% | 
4 | O=[N+]([O-])c1ccc(-c2cc(C3CCNCC3)n[nH]2)cc1 | 4.6% | 
5 | c1cc(-c2cc(C3CCNCC3)[nH]n2)ccn1 |  | Activity (RAW264.7 [2]): Non-Toxic
6 | Fc1cc(-c2cc(C3CCNCC3)n[nH]2)ccn1 | 0.1% | 
7 | Fc1ccc(-c2cc(C3CCNCC3)n[nH]2)c(F)c1 | 9.8% | 
8 | Fc1cccc(-c2cc(C3CCNCC3)n[nH]2)c1 | 0.1% | 
9 | Clc1cnccc1-c1cc(C2CCNCC2)n[nH]1 | 32.8% | 
10 | c1cnc(-c2cc(C3CCNCC3)n[nH]2)cn1 | 0.1% | 
11 | c1ncc(-c2cc(C3CCNCC3)n[nH]2)cn1 | 0.1% | 
12 | COc1cc(-c2cc(C3CCNCC3)n[nH]2)ccn1 | 19.3% | 
13 | Fc1cc(-c2cc(C3CCNCC3)n[nH]2)cc(F)c1F | 3.4% | 
14 | CN(C)c1cc(-c2cc(C3CCNCC3)n[nH]2)ccn1 | 56.9% | 
15 | Clc1cc(-c2cc(C3CCNCC3)n[nH]2)cc(Cl)n1 | 22.1% | 
16 | c1cc(-c2cc(C3CCNCC3)n[nH]2)ncn1 | 0.2% | 
17 | Nc1cc(-c2cc(C3CCNCC3)n[nH]2)ccn1 | 33.3% | Activity (RAW264.7 [2]): Non-Toxic; Activity (RAW264.7 [3]): inactive
18 | Cn1ccc2c(-c3cc(C4CCNCC4)n[nH]3)ccnc21 | 23.8% | 
19 | c1ccc(-c2cc(C3CCNCC3)n[nH]2)cc1 | 0.3% | 
20 | Fc1ccc(-c2cc(C3CCNCC3)n[nH]2)cc1 | 0.1% | 
21 | Fc1cnccc1-c1cc(C2CCNCC2)n[nH]1 | 0.1% | Activity (RAW264.7 [2]): Non-Toxic; Activity (RAW264.7 [3]): inactive

Row | SMILES | inhibition at 20 µM (MV4-11) | other results
22 | c1ncc(-c2cc(C3CCNCC3)n[nH]2)s1 | 11.1% | 
23 | Brc1cnccc1-c1cc(C2CCNCC2)n[nH]1 | 6.1% | 
24 | Cc1cc(-c2cc(C3CCNCC3)n[nH]2)cc(C)n1 | 0.2% | 
25 | Cc1cc(F)ccc1-c1cc(C2CCNCC2)n[nH]1 | 31.2% | 
26 | Fc1cc(F)cc(-c2cc(C3CCNCC3)n[nH]2)c1 | 2.1% | 
27 | c1cncc(-c2cc(C3CCNCC3)n[nH]2)c1 | 0.2% | 
28 | Brc1cc(-c2cc(C3CCNCC3)n[nH]2)ccn1 | 20.7% | 
29 | Fc1ccc(-c2cc(C3CCNCC3)n[nH]2)cc1F | 6.4% | 
30 | C[C@@H]1C[C@H]2[C@@H]3CCC4=CC(=O)C=C[C@]4(C)[C@@]3(F)[C@@H](O)C[C@]2(C)[C@@]1(O)C(=O)CO |  | Activity (Mus musculus [4]): Active; Activity (Mus musculus [5]): Active; Activity (Mus musculus [6]): Active; Activity (Mus musculus [7]): Active; Activity (Mus musculus [8]): Active; Activity (RAW264.7 [9]): Active; Activity (Mus musculus [10]): Active; Activity (Mus musculus [11]): Active; Activity (Mus musculus [12]): Active; Activity (Mus musculus [13]): Active; Activity (Mus musculus [14]): Active; Activity (Mus musculus [15]): Active; Activity (Mus musculus [16]): Active; Activity (Mus musculus [17]): Active
31 | c1cc(-c2cc(C3CCNCC3)n[nH]2)ccn1 | 51.2% | Activity (RAW264.7 [3]): inactive
32 | CN1CCN(c2ccc(-c3cc(C4CCNCC4)n[nH]3)cc2)CC1 | 8.5% | inhibition at 20 µM (RAW264.7 [1]): > 50%
33 | Nc1ncccc1-c1cc(C2CCNCC2)n[nH]1 | 15.2% | 
34 | CN1CCC(c2cc(-c3ccncc3)[nH]n2)CC1 | 3.39% | 
35 | CNc1cc(-c2cc(C3CCNCC3)n[nH]2)ccn1 | 30.2% | 
36 | CCNc1cc(-c2cc(C3CCNCC3)n[nH]2)ccn1 | 15.4% | 
37 | Nc1ccc(-c2cc(C3CCNCC3)n[nH]2)cn1 | 35% | 
38 | Nc1ncc(-c2cc(C3CCNCC3)n[nH]2)cn1 | 37.9% | 
39 | FC(F)(F)c1ccc(-c2cc(C3CCNCC3)n[nH]2)cc1 | 36% | 
40 | FC(F)(F)c1cc(-c2cc(C3CCNCC3)n[nH]2)ccn1 | 52.5% | 
41 | c1cc(-c2cc(C3CCNCC3)n[nH]2)cs1 | 0.1% | 
42 | Cc1cc(-c2cc(C3CCNCC3)n[nH]2)ccn1 | 0.1% | 
